Laboratory results published in patent EP0454444A1, “Glutarimide derivatives and herbicides” (NISSAN CHEMICAL INDUSTRIES LTD., priority 1990, dated 1991).

Tests used:
Experiment in all cases: Herbicidal effect test by soil treatment
Format in all cases: in vivo
soybean (Glysine max) = conditions: crop plant, three weeks after spraying
Outline: (§1)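 Seeds of weeds and crops were sown together in sterilized diluvial soil and covered with about 1 cm of soil. Formulations diluted in water were sprayed evenly onto the soil surface at predetermined active-ingredient rates. Three weeks later, growth control was scored from top fresh weight of treated versus untreated plants.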

[1] = test system: large crabgrass (Digitaria adscendens); conditions: three weeks after spraying
Outline: as §1

[2] = test system: wheat (Triticum aestivum); conditions: crop plant, three weeks after spraying
Outline: as §1

[3] = test system: rorippa ssp. (Rorippa atrovirens); conditions: three weeks after spraying
Outline: as §1

[4] = test system: cotton (Gossypium herbaceum); conditions: crop plant, three weeks after spraying
Outline: as §1

[5] = test system: annual sedge (Cyperus microiria); conditions: three weeks after spraying
Outline: as §1

[6] = test system: hairly galinosoga (Galinsoga ciliat); conditions: three weeks after spraying
Outline: as §1

[7] = test system: black nightshade (Solanum nigrum L.); conditions: three weeks after spraying
Outline: as §1

corn (Zea mays) = conditions: crop plant, three weeks after spraying
Outline: as §1

rice (Oryza sativa) = conditions: crop plant, three weeks after spraying
Outline: as §1

[8] = test system: barnyardgrass (Echinochloa crusgalli); conditions: three weeks after spraying
Outline: as §1

| SMILES | herbicidal effect, S (Glysine max) (soybean (Glysine max); application amount 0.4 g/a) | herbicidal effect, S (Glysine max) (soybean (Glysine max); application amount 0.8 g/a) | herbicidal effect, S (Glysine max) (soybean (Glysine max); application amount 1.6 g/a) | herbicidal effect, M (Digitaria adscendens) ([1]; application amount 0.4 g/a) | herbicidal effect, M (Digitaria adscendens) ([1]; application amount 0.8 g/a) | herbicidal effect, M (Digitaria adscendens) ([1]; application amount 1.6 g/a) | herbicidal effect, W (Triticum vulgare) ([2]; application amount 0.4 g/a) | herbicidal effect, W (Triticum vulgare) ([2]; application amount 0.8 g/a) | herbicidal effect, W (Triticum vulgare) ([2]; application amount 1.6 g/a) | herbicidal effect, I (Rorippa indica) ([3]; application amount 0.4 g/a) | herbicidal effect, I (Rorippa indica) ([3]; application amount 0.8 g/a) | herbicidal effect, I (Rorippa indica) ([3]; application amount 1.6 g/a) | herbicidal effect, C (Gossypium herbaceum) ([4]; application amount 0.4 g/a) | herbicidal effect, C (Gossypium herbaceum) ([4]; application amount 1.6 g/a) | herbicidal effect, K (Cyperus microiria) ([5]; application amount 1.6 g/a) | herbicidal effect, D (Galinsoga ciliat) ([6]; application amount 1.6 g/a) | herbicidal effect, H (Solanum nigrum L.) ([7]; application amount 1.6 g/a) | herbicidal effect, T (Zea mays) (corn (Zea mays); application amount 1.6 g/a) | herbicidal effect, R (Oryza sativa) (rice (Oryza sativa); application amount 1.6 g/a) | herbicidal effect, N (Echinochloa crusgalli) ([8]; application amount 1.6 g/a) | other results |
| --- | --- | --- | --- | --- | --- | --- | --- | --- | --- | --- | --- | --- | --- | --- | --- | --- | --- | --- | --- | --- | --- |
| CC(C)OC(=O)c1cc(N2C(=O)CC(C(F)(F)F)C(C)C2=O)c(F)cc1Cl (centres unmarked) [1-3] | 0 (Growth control rates of less than 5% (substantially no effect)) | 0 (Growth control rates of less than 5% (substantially no effect)) | 2 (Growth control rates of 20 to 40%) | 5 (Growth control,rates of more than 90% (almost completely withered)) | 5 (Growth control,rates of more than 90% (almost completely withered)) | 5 (Growth control,rates of more than 90% (almost completely withered)) | 2 (Growth control rates of 20 to 40%) | 3 (Growth control rates of 40 to 70%) | 5 (Growth control,rates of more than 90% (almost completely withered)) | 5 (Growth control,rates of more than 90% (almost completely withered)) | 5 (Growth control,rates of more than 90% (almost completely withered)) | 5 (Growth control,rates of more than 90% (almost completely withered)) | 0 (Growth control rates of less than 5% (substantially no effect)) | 3 (Growth control rates of 40 to 70%) | 5 (Growth control,rates of more than 90% (almost completely withered)) | 5 (Growth control,rates of more than 90% (almost completely withered)) | 5 (Growth control,rates of more than 90% (almost completely withered)) | 4 (Growth control rates of 70 to 90%) | 5 (Growth control,rates of more than 90% (almost completely withered)) | 5 (Growth control,rates of more than 90% (almost completely withered)) | herbicidal effect, C (Gossypium herbaceum) ([4]; application amount 0.8 g/a): 1 (Growth control rates of 5 to 20%); herbicidal effect, K (Cyperus microiria) ([5]; application amount 0.4 g/a): 5 (Growth control,rates of more than 90% (almost completely withered)); herbicidal effect, K (Cyperus microiria) ([5]; application amount 0.8 g/a): 5 (Growth control,rates of more than 90% (almost completely withered)); herbicidal effect, D (Galinsoga ciliat) ([6]; application amount 0.4 g/a): 5 (Growth control,rates of more than 90% (almost completely withered)); herbicidal effect, D (Galinsoga ciliat) ([6]; application amount 0.8 g/a): 5 (Growth control,rates of more than 90% (almost completely withered)); herbicidal effect, H (Solanum nigrum L.) ([7]; application amount 0.4 g/a): 5 (Growth control,rates of more than 90% (almost completely withered)); herbicidal effect, H (Solanum nigrum L.) ([7]; application amount 0.8 g/a): 5 (Growth control,rates of more than 90% (almost completely withered)); herbicidal effect, T (Zea mays) (corn (Zea mays); application amount 0.4 g/a): 2 (Growth control rates of 20 to 40%); herbicidal effect, T (Zea mays) (corn (Zea mays); application amount 0.8 g/a): 3 (Growth control rates of 40 to 70%); herbicidal effect, R (Oryza sativa) (rice (Oryza sativa); application amount 0.4 g/a): 4 (Growth control rates of 70 to 90%); herbicidal effect, R (Oryza sativa) (rice (Oryza sativa); application amount 0.8 g/a): 5 (Growth control,rates of more than 90% (almost completely withered)); herbicidal effect, N (Echinochloa crusgalli) ([8]; application amount 0.4 g/a): 5 (Growth control,rates of more than 90% (almost completely withered)); herbicidal effect, N (Echinochloa crusgalli) ([8]; application amount 0.8 g/a): 5 (Growth control,rates of more than 90% (almost completely withered)) |
| O=C1COc2cc(F)c(N3C(=O)CC(C(F)(F)F)CC3=O)cc2N1CC1CCCCC1 [1-28] | – | – | 0 (Growth control rates of less than 5% (substantially no effect)) | – | – | 5 (Growth control,rates of more than 90% (almost completely withered)) | – | – | 2 (Growth control rates of 20 to 40%) | – | – | 5 (Growth control,rates of more than 90% (almost completely withered)) | – | 0 (Growth control rates of less than 5% (substantially no effect)) | 5 (Growth control,rates of more than 90% (almost completely withered)) | 5 (Growth control,rates of more than 90% (almost completely withered)) | 5 (Growth control,rates of more than 90% (almost completely withered)) | 0 (Growth control rates of less than 5% (substantially no effect)) | 0 (Growth control rates of less than 5% (substantially no effect)) | 5 (Growth control,rates of more than 90% (almost completely withered)) | – |
| C#CCN1C(=O)COc2cc(F)c(N3C(=O)CC(C)CC3=O)cc21 [1-23] | 0 (Growth control rates of less than 5% (substantially no effect)) | 1 (Growth control rates of 5 to 20%) | 2 (Growth control rates of 20 to 40%) | 5 (Growth control,rates of more than 90% (almost completely withered)) | 5 (Growth control,rates of more than 90% (almost completely withered)) | 5 (Growth control,rates of more than 90% (almost completely withered)) | 4 (Growth control rates of 70 to 90%) | 5 (Growth control,rates of more than 90% (almost completely withered)) | 5 (Growth control,rates of more than 90% (almost completely withered)) | 5 (Growth control,rates of more than 90% (almost completely withered)) | 5 (Growth control,rates of more than 90% (almost completely withered)) | 5 (Growth control,rates of more than 90% (almost completely withered)) | 2 (Growth control rates of 20 to 40%) | 4 (Growth control rates of 70 to 90%) | 5 (Growth control,rates of more than 90% (almost completely withered)) | 5 (Growth control,rates of more than 90% (almost completely withered)) | 5 (Growth control,rates of more than 90% (almost completely withered)) | 5 (Growth control,rates of more than 90% (almost completely withered)) | 5 (Growth control,rates of more than 90% (almost completely withered)) | 5 (Growth control,rates of more than 90% (almost completely withered)) | herbicidal effect, C (Gossypium herbaceum) ([4]; application amount 0.8 g/a): 3 (Growth control rates of 40 to 70%); herbicidal effect, K (Cyperus microiria) ([5]; application amount 0.4 g/a): 5 (Growth control,rates of more than 90% (almost completely withered)); herbicidal effect, K (Cyperus microiria) ([5]; application amount 0.8 g/a): 5 (Growth control,rates of more than 90% (almost completely withered)); herbicidal effect, D (Galinsoga ciliat) ([6]; application amount 0.4 g/a): 5 (Growth control,rates of more than 90% (almost completely withered)); herbicidal effect, D (Galinsoga ciliat) ([6]; application amount 0.8 g/a): 5 (Growth control,rates of more than 90% (almost completely withered)); herbicidal effect, H (Solanum nigrum L.) ([7]; application amount 0.4 g/a): 5 (Growth control,rates of more than 90% (almost completely withered)); herbicidal effect, H (Solanum nigrum L.) ([7]; application amount 0.8 g/a): 5 (Growth control,rates of more than 90% (almost completely withered)); herbicidal effect, T (Zea mays) (corn (Zea mays); application amount 0.4 g/a): 4 (Growth control rates of 70 to 90%); herbicidal effect, T (Zea mays) (corn (Zea mays); application amount 0.8 g/a): 5 (Growth control,rates of more than 90% (almost completely withered)); herbicidal effect, R (Oryza sativa) (rice (Oryza sativa); application amount 0.4 g/a): 2 (Growth control rates of 20 to 40%); herbicidal effect, R (Oryza sativa) (rice (Oryza sativa); application amount 0.8 g/a): 3 (Growth control rates of 40 to 70%); herbicidal effect, N (Echinochloa crusgalli) ([8]; application amount 0.4 g/a): 5 (Growth control,rates of more than 90% (almost completely withered)); herbicidal effect, N (Echinochloa crusgalli) ([8]; application amount 0.8 g/a): 5 (Growth control,rates of more than 90% (almost completely withered)) |
